Reference: PubChem BioAssay (NCI)
Several values for one entry are separate records, joined by “and”; a condition that tells them apart may be missing. Equal values may be shown once.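 Method: 48-hour compound exposure of cells in 96-well plates, five concentrations, linear interpolation of endpoints. GI50 is the concentration that inhibits growth by half. TGI: total growth inhibition.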

Columns and labels:
Assay in all cases: NCI anticancer screen, dose series, 48 h
[1] = tested on: MDA-MB-435
[2] = tested on: MDA-N
[3] = tested on: LXFL 529 NSCLC
[4] = tested on: M19-MEL melanoma
[5] = tested on: HOP-18 NSCLC
[6] = tested on: XF 498 CNS
[7] = tested on: RXF-631 renal
[8] = tested on: KM20L2 colon
[9] = tested on: DMS 273 small cell lung

Row | SMILES | GI50 [1] | TGI [1] | TGI [3] [µM] | TGI [4] [µM] | TGI [5] [µM] | TGI [8] [µM] | TGI [9] [µM] | also measured
1 | CC1C(C)N(C(=O)CCl)c2ccccc2N1C(=O)CCl (centres undefined) | 0.276 µM | 0.939 µM |  |  |  |  |  | 
2 | CC(=O)NC(C)(C)C1CCC(C)=C(c2ccccc2)C1 (centres undefined) |  | > 100 µM |  |  |  |  |  | TGI [2]: > 100 µM
3 | Cc1cccc(C2SCc3nc4ccccc4n32)c1 (centres undefined) |  |  | > 100 | 96.8 |  |  |  | 
4 | CCc1ccc(CCC(=O)Nc2ncc(Cc3ccc(Cl)cc3)s2)o1 | 0.147 µM | 0.366 µM |  |  |  |  |  | 
5 | CCOC(=O)Oc1cc2c(c(OC)c1OC)-c1ccc(OC)c(=O)cc1C(NC(C)=O)CC2 (centres undefined) |  | 0.0168 µM | > 100 | > 100 | > 100 | 0.0866 | > 100 | TGI [6]: > 100 µM; TGI [2]: < 0.0216 µM; TGI [7]: > 22.5 µM
6 | CC1=C2[C@@H](CC1)[C@]1(C)O[C@@](C(C)C)(C[C@H]1OC(=O)CO)[C@H]2OC(=O)C1CC1c1ccccc1 (some centres undefined) | 14.1 µM | 27.3 µM |  |  |  |  |  | 
7 | COC(=O)C1=C(O)[C@H](C(=O)OC)C2(O)C(C(=O)OC)[C@H](c3ccc(OC(=O)C(C)c4ccc(CC(C)C)cc4)cc3)C[C@@H]1[C@@H]2C(=O)OC (some centres undefined) | 12.8 µM | 28.2 µM |  |  |  |  |  | 
8 | Cc1ccccc1NC(=O)c1sc2nc(C)c(C(=O)/C=C/c3ccccc3)cc2c1N | 0.895 µM | 2.33 µM |  |  |  |  |  | 
9 | CCOC(=O)C(=O)CC1=Nc2ccccc2SC(c2cccc(C)c2)C1 (centres undefined) |  |  | 31.9 | 40.9 |  | 32.2 | 37.9 | TGI [7]: 29.4 µM
10 | COC(=O)N/N=C(\C)c1c(O)cc(C)oc1=O |  |  | 45.5 |  |  | > 100 |  | TGI [7]: > 100 µM
11 | COc1cc(Nc2ncc(-c3ccccc3)o2)cc(OC)c1 | > 25 µM | > 25 µM |  |  |  |  |  | 
12 | CCOP(=O)(OCC)C1CCCOC1=O (centres undefined) |  |  | > 100 | > 100 | > 100 | > 100 | > 100 | TGI [6]: > 100 µM; TGI [7]: > 100 µM
13 | COc1ccc(C/C(=C(\C)c2ccc(OCCN3CCCC3)cc2)c2ccc(OCCN3CCCC3)cc2)cc1 | 1.7 µM | 3.24 µM |  |  |  |  |  | 
14 | C[C@]12CC[C@H]3[C@@H](CC=C4C[C@@H](N5CCCC5)CC[C@@]43C)[C@@H]1C/C(=C\c1cccc(OCCN3CCOCC3)c1)[C@@H]2O | 3.64 µM | > 100 µM |  |  |  |  |  | 
15 | COc1ccc(Cc2coc3ccccc3c2=O)cc1OC |  | > 100 µM |  |  |  |  |  | 
16 | O=C([CH-]C(=O)c1ccccc1)c1ccccc1.[CH-]1CCCCC1.[CH-]1CCCCC1.[CH-]1CCCCC1.[Sn+4] |  |  |  |  |  | 26.3 |  | GI50 [8]: 12.3 µM
17 | CNC(=O)c1cc(Oc2ccc(NC(=O)Nc3ccc(Cl)c(C(F)(F)F)c3)c(F)c2)ccn1 | 1.56 µM and 1.52 µM | 4.8 µM and 4.85 µM |  |  |  |  |  | 
18 | O=[N+]([O-])C(/C=N/Nc1ccccc1)/C=N/Nc1ccccc1 |  |  | > 100 | > 100 | > 100 | > 100 | > 100 | TGI [6]: > 100 µM

Row | SMILES | GI50 [1] | TGI [1] | TGI [3] [µM] | TGI [4] [µM] | TGI [5] [µM] | TGI [8] [µM] | TGI [9] [µM] | also measured
19 | COc1ncc(Nc2ncc([C@@H](C)N3CCN(S(C)(=O)=O)CC3)cc2-c2nc(C)nc(N)n2)cc1F | 1.15 µM | > 100 µM |  |  |  |  |  | 
20 | COCN1COCN=C1NC#N |  |  | > 100 | > 100 | > 100 | > 100 | > 100 | TGI [6]: > 100 µM; TGI [7]: > 100 µM
21 | O=C1N2Cc3c4ccc5c3CN3C(=O)N6Cc7c(ccc(c7CN1C6(c1ccccc1)C23c1ccccc1)OCCOCCNCCOCCO4)OCCOCCNCCOCCO5 (centres undefined) |  |  | 53.7 | > 100 | 28.9 | > 100 | > 100 | TGI [6]: > 100 µM; TGI [7]: > 100 µM
22 | O=c1[nH]c2ccccc2nc1/C=C(\O)c1ccccc1O |  |  | > 100 | > 100 | > 100 | > 100 | > 100 | 
23 | O=C(/C=C\c1ccc([N+](=O)[O-])cc1)c1ccccc(=O)c1O |  | 7.55 µM |  |  |  |  |  | TGI [2]: > 30.5 µM
24 | O=C(CC1OC(O)C(Cl)=C1Cl)c1cccnc1 (centres undefined) |  |  | > 100 | > 100 | > 100 | > 100 | > 100 | TGI [6]: > 100 µM; TGI [7]: > 100 µM
25 | CN(C)CCNC(=O)c1cccc2cc3c(Cl)cccc3nc12 |  |  |  | 3.18 | > 27.6 | 4.75 | > 100 | TGI [6]: 1.64 µM; TGI [7]: > 100 µM
26 | ClC/C=C/COC1CCCCO1 (centres undefined) |  |  | > 100 | > 100 | > 100 | > 100 | > 100 | TGI [6]: > 100 µM; TGI [7]: > 100 µM
27 | CC1(C)CNc2cc(NC(=O)c3cccnc3NCc3ccncc3)ccc21 | 26.1 µM | > 100 µM |  |  |  |  |  | 
28 | Cc1cccc(C)c1NC(=O)C1=NC(=S)NC(c2ccccc2)C1c1nc2ccccc2s1 (centres undefined) |  |  | > 100 | > 100 | > 100 | > 100 | > 100 | TGI [6]: > 100 µM
29 | O=C(/C=C/c1ccccc1F)c1ccc(Cl)c(Cl)c1 |  |  | 35.6 | 58.1 | > 100 | > 100 | > 100 | TGI [6]: 77 µM; TGI [7]: > 100 µM
30 | O=C1CC(c2cccc(F)c2)Nc2cc3c(cc21)OCO3 (centres undefined) | < 0.01 µM | < 0.01 µM |  |  |  |  |  | GI50 [2]: < 0.01 µM; TGI [2]: 0.0377 µM and < 0.01 µM
31 | CC(C)(C)C1CCC2c3c([nH]c4ccccc34)C3C(=O)N(c4ccc(Cl)cc4)C(=O)C3C2C1 (centres undefined) | > 100 µM | > 100 µM |  |  |  |  |  | GI50 [2]: 94.9 µM and > 10 µM; TGI [2]: > 100 µM
32 | O=C(Nc1ccccc1)Nc1ccc2cc3ccc(NC(=O)Nc4ccccc4)cc3nc2c1 | 1.68 µM | 3.15 µM |  |  |  |  |  | 
33 | CC1=C(c2ccccc2)C(O)(c2ccccc2)C(C)C1=O (centres undefined) | 2.13 µM | 5.47 µM |  |  |  |  |  | 
34 | NCCCC[C@@H]1NC(=O)[C@H](CC(=O)O)NC(=O)CNC(=O)[C@H](CCCN=C(N)N)NC(=O)[C@@H](N)CSSC[C@@H](C(=O)O)NC(=O)[C@H](CC(=O)O)NC(=O)[C@@H]2CCCN2C(=O)CNC1=O | > 100 µM | > 100 µM |  |  |  |  |  | 
35 | O=S(=O)(NNc1ccccc1)c1ccccc1 |  | 21.3 µM |  |  |  |  |  | TGI [2]: 25.3 µM
